Measurements: patent publication US6489440B1, “Cyclic compounds” (Basilea Pharmaceutica AG, priority 1998, dated 2002)
Numbered stars: 1 amine (or outer) side, 2 acyl side, 3 side chain; on linkers, the order of the positions; unused ones are H or OH. Bridge positions count the residues as written; N and C are the ends. Square brackets hold non-standard residues; d marks the D form. Peptide text beside a SMILES is read from it. ξ: configuration not given here. X3 = CCCCCCCOc1ccc(-c2ccc(CC[C@H](CC(=O)[*:1])N[*:2])cc2)cc1; ξTyr(3-NO2) = NC(Cc1ccc(O)c([N+](=O)[O-])c1)C(=O)O; X7 = CCCCCCCCCCCCC(C)[C@H](CC(=O)[*:1])O[*:2]; X4 = CC(=O)Nc1cc(CC(N[*:1])C(=O)[*:2])ccc1O; X2 = NC(=O)CC(O)C(N[*:1])C(=O)[*:2]; X1 = O=C(C1C(O)CCN1[*:1])[*:2]; ξY = NC(Cc1ccc(O)cc1)C(=O)O; ξHyp = O=C(O)C1CC(O)CN1; ξOrn = NCCCC(N)C(=O)O; ξT = CC(O)C(N)C(=O)O; ξV = CC(C)C(N)C(=O)O; ξA = CC(N)C(=O)O

Assays:
[1] = Acute toxicity on administration to mice for 4 weeks; type: in vivo; settings: 5 mg/kg and 30 mg/kg
[2] = Solubility; settings: solvents in which soluble
[3] = tested on: Fusarium solani CF1088; test: In vitro antifungal activity, broth micro-dilution; type: cell-based; settings: YNB with 0.2% agarose, 1-2 days at 35° C.
Description: (§1) The in vitro antifungal activities of the representative Aerothricins of the present study were evaluated by determining the 50% inhibitory concentration (IC50), which was calculated as the lowest concentration of an antifungal to inhibit the growth of fungus to […] turbidity compared with the drug-free control growth spectrophotometrically.
(§2) The IC50 values were determined by the broth micro-dilution procedure based on NCCLS Approved Standard with the following minor modifications (National Committee for Clinical Laboratory Standards. (1997) Reference method for broth dilution antifungal susceptibility testing for yeasts. Approved standard. Document M27-A). Yeast Nitrogen Base (YNB; Difco Lab.) supplemented with 1% glucose and 0.25% K2HPO4 was used as testing medium for yeast, the same medium solidified with 0.2% low melting point agarose (BRL) was used for filamentous fungi. Inoculum size was 1-3×10^4 cells/ml, and incubation was performed for 1-2 days at 35° C.

[4] = tested on: Aspegillus fumigatus CF1003; test: In vitro antifungal activity, broth micro-dilution; type: cell-based; settings: YNB with 0.2% agarose, 1-2 days at 35° C.
Description: as §1, §2

[5] = tested on: Candida albicans CY1002; test: In vitro antifungal activity, broth micro-dilution; type: cell-based; settings: YNB medium, 1-2 days at 35° C.
Description: as §1, §2

[6] = tested on: Candida albicans; test: In vivo antifungal efficacy, systemic candidiasis in mice; parameters: species or system Crj: CD-1 (ICR) mice; settings: i.v., b.i.d×1 day followed by q.d.×2 days; from survival on day 14
Description: Mice of a conventional immunocompetent mouse strain, Crj: CD-1 (ICR) were used for experimental infection models of systemic candidiasis. 4 weeks old Crj: CD-1 (ICR) mice were used for systemic candidiasis by injecting Candida albicans 5×10^6 conidia/mouse via the tail vein. Treatments were given twice (0, 4 h after infection) on the first day and once daily on following 2 days for systemic candidiasis (b.i.d×1 day followed by q.d.×2 days), intravenously (i.v.). 50% of effective dose (ED50) values was calculated from the survival number at each dose on day 14.

Compound	acute toxicity [1]	Solubility [2]	In vitro Antifungal activity, IC50 [3] [µg/mL]	In vitro Antifungal activity, IC50 [4] [µg/mL]	In vitro Antifungal activity, IC50 [5] [µg/mL]	In vivo antifungal activity against systemic candidiasis in mice, ED50 on day 14 [6] [mg/kg]
CCCCCCCCCCCCC(C)[C@@H]1CC(=O)NC(C(C)O)C(=O)NC(C)C(=O)NC(Cc2ccc(O)cc2)C(=O)NC(C(C)C)C(=O)N2CC(O)CC2C(=O)NC(C(C)O)C(=O)NC(C(C)O)C(=O)N2CCC(O)C2C(=O)NC(C(O)CC(N)=O)C(=O)NCC(=O)NC(C(C)O)C(=O)NC(CCCN)C(=O)O1 (stereo partly drawn) [Aerothricin 1] ([ξT][ξA][ξY][ξV][ξHyp][ξT][ξT][X1][X2]G[ξT][ξOrn]; linker N-C via X7)	no acute toxicity	Soluble: water, methanol, dimethylsulfoxide	–	–	–	–
CCCCCCCOc1ccc(-c2ccc(CC[C@@H]3CC(=O)NC(C(C)O)C(=O)NC(C)C(=O)NC(Cc4ccc(O)cc4)C(=O)NC(C(C)C)C(=O)N4CC(O)CC4C(=O)NC(C(C)O)C(=O)NC(C(C)O)C(=O)N4CCC(O)C4C(=O)NC(C(O)CC(N)=O)C(=O)NCC(=O)NC(C(C)O)C(=O)NC(CCCN)C(=O)N3)cc2)cc1 (stereo partly drawn) [Aerothricin 43] ([ξT][ξA][ξY][ξV][ξHyp][ξT][ξT][X1][X2]G[ξT][ξOrn]; linker N-C via X3)	–	–	0.70	0.04	0.05	–
CCCCCCCOc1ccc(-c2ccc(CC[C@@H]3CC(=O)NC(C(C)O)C(=O)NC(C)C(=O)NC(Cc4ccc(O)c([N+](=O)[O-])c4)C(=O)NC(C(C)C)C(=O)N4CC(O)CC4C(=O)NC(C(C)O)C(=O)NC(C(C)O)C(=O)N4CCC(O)C4C(=O)NC(C(O)CC(N)=O)C(=O)NCC(=O)NC(C(C)O)C(=O)NC(CCCN)C(=O)N3)cc2)cc1 (stereo partly drawn) [Aerothricin 55] ([ξT][ξA][ξTyr(3-NO2)][ξV][ξHyp][ξT][ξT][X1][X2]G[ξT][ξOrn]; linker N-C via X3)	–	–	0.39	0.04	0.04	<0.3
CCCCCCCOc1ccc(-c2ccc(CC[C@@H]3CC(=O)NC(C(C)O)C(=O)NC(C)C(=O)NC(Cc4ccc(O)c(NC(C)=O)c4)C(=O)NC(C(C)C)C(=O)N4CC(O)CC4C(=O)NC(C(C)O)C(=O)NC(C(C)O)C(=O)N4CCC(O)C4C(=O)NC(C(O)CC(N)=O)C(=O)NCC(=O)NC(C(C)O)C(=O)NC(CCCN)C(=O)N3)cc2)cc1 (stereo partly drawn) [Aerothricin 57] ([ξT][ξA][X4][ξV][ξHyp][ξT][ξT][X1][X2]G[ξT][ξOrn]; linker N-C via X3)	–	–	1.30	0.05	0.14	–
